From article PMC6016456, “Human DHEA sulfation requires direct interaction between PAPS synthase 2 and DHEA sulfotransferase SULT2A1” (The Journal of Biological Chemistry, 2018)

Molecular target: T1, SULT2A1 (Homo sapiens, UniProt Q06520)
T1 construct: expressed from a SULT2A1 vector in HEK293 cells, co-expressed with PAPS synthase EGFP fusions
T1 sequence (Q06520 1-285): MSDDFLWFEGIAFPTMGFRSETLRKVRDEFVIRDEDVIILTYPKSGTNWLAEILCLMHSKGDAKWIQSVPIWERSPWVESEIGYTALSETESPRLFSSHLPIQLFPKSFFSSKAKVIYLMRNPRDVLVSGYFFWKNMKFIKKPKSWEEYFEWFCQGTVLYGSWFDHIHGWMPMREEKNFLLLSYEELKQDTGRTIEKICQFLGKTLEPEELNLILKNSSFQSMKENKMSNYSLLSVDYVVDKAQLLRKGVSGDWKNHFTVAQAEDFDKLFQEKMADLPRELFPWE
Test: DHEA sulfation assay in transfected HEK293 cells
Type: cell-based
Conditions: co-expressed PAPS synthase supplies PAPS

## C[C@]12CC[C@H](O)CC1=CC[C@@H]1[C@@H]2CC[C@]2(C)C(=O)CC[C@@H]12 [DHEA]
  conversion rate: co-express PAPS synthase protein variants with cytoplasmic SULT2A1
